This note sets out measurements from US8568815B2, “Soluble complexes of curcumin” (Novobion Oy, priority 2008, dated 2013).

Each structure is given as a SMILES string.

The nature of this data set: Photostability, illumination with high intensity mercury lamp. The conditions noted are these: methanol solution; dissolved in methanol (4 mmol/l), mercury lamp 200-600 nm; read-out: Half-life of decomposition during illumination. The format is physicochemical.

For orientation: half-life means the time needed for the level to fall by half in the phase considered. In the case of `COc1cc(/C=C/C(=O)CC(=O)/C=C/c2ccc(O)c(OC)c2)ccc1O` [curcumin], the half-life at 4 mmol/l was found to be 1.08 h.
